The values below come from patent US9487510B2, “Substituted heterocyclic acetamides as kappa opioid receptor (KOR) agonists” (Dr. Reddy's Laboratories Ltd., priority 2012, dated 2016).

One data set has as its target human KOR receptor (Homo sapiens, UniProt P41145). As to the kind of experiment: IP-One HTRF assay, potency of KOR agonists, dose-response in transiently transfected COS-7 cells. Type of data set: cell-based. For orientation: TR-FRET usually uses a lanthanide donor and a delayed reading to cut background.

Each structure is given as a SMILES string. pEC50: −log10 of the molar value. Where only a bound is given, the exact number is not on record here.

human KOR receptor, sequence (P41145 whole entry): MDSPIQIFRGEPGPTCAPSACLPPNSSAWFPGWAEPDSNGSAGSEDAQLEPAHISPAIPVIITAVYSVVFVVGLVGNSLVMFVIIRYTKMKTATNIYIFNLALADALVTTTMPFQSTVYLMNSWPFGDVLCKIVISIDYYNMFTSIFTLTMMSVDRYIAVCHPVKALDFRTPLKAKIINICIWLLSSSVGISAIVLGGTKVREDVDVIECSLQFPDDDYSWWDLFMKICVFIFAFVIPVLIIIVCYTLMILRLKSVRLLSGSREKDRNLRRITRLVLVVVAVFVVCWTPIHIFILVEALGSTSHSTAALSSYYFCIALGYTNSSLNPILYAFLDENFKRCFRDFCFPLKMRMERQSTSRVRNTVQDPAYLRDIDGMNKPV

One may read the pEC50 as the negative decadic logarithm of the EC50, by convention in mol/L. Read a high pEC50 as a low EC50. What is called melting point is the temperature, or range, at which the solid turns liquid. Compound `O=C(Cc1ccc2oc(=O)n(Cc3cccc(-c4nn[nH]n4)c3)c2c1)N[C@H](CN1CCC(O)C1)c1ccccc1` (stereo in doubt) [Example 102, 2-(3-(3-(2H-tetrazol-5-yl)benzyl)-2-oxo-2,3-dihydrobenzo[d]oxazol-5-yl)-N-((S)-2-((S)-3-hydroxypyrrolidin-1-yl)-1-phenylethyl)acetamide] showed a melting point of 235 to 237 °C. Moreover, the pEC50 at human KOR receptor is no less than 7.30.
On to `CC(C)(C)OC(=O)COc1cccc([C@@H](CN2CCCC2)NC(=O)Cc2ccc3oc(=O)n(Cc4ccccc4)c3c2)c1` [Example 63, (S)-t-butyl-2-(3-(1-(2-(3-benzyl-2-oxo-2,3-dihydrobenzo[d]oxazol-5-yl)acetamido)-2-(pyrrolidin-1-yl)ethyl)phenoxy)acetate], for which the melting point is 68 to 70 °C. Also, the pEC50 on human KOR receptor was no less than 7.30.
The corresponding values for `O=C(Cc1ccc2[nH]c(=O)ccc2c1)N[C@H](CN1CCC(O)C1)c1ccccc1` (stereo in doubt) [Example 51, N-((S)-2-((R)-3-hydroxypyrrolidin-1-yl)-1-phenylethyl)-2-(2-oxo-1,2-dihydroquinolin-6-yl)acetamide] are 196 to 198 °C and 6.00 to 7.00.
In the case of `O=C(Cc1ccc2oc(=O)[nH]c2c1)N[C@H](CN1CCCC1)c1ccccc1` [Example 56, (S)-2-(2-oxo-2,3-dihydrobenzo[d]oxazol-5-yl)-N-(1-phenyl-2-(pyrrolidin-1-yl)ethyl) acetamide], the melting point was in the range of 129 to 130 °C. For the same compound, the pEC50 on human KOR receptor was no less than 7.30.
Regarding `NC(=O)c1cccc(Cn2c(=O)oc3ccc(CC(=O)N[C@H](CN4CCCC4)c4ccccc4)cc32)c1` [Example 91, (S)-3-((2-oxo-5-(2-oxo-2-(1-phenyl-2-(pyrrolidin-1-yl)ethylamino)ethyl)benzo[d]oxazol-3(2H)-yl)methyl)benzamide], the melting point fell in the range of 171 to 172 °C. The compound also had a pEC50 on human KOR receptor of no less than 7.30.
In the same order, the values of `COc1ccc(COc2cccc([C@@H](CN3CCCC3)NC(=O)Cc3ccc4oc(=O)n(Cc5ccccc5)c4c3)c2)cc1` [Example 58, (S)-2-(3-benzyl-2-oxo-2,3-dihydrobenzo[d]oxazol-5-yl)-N-(1-(3-(4-methoxybenzyloxy)phenyl)-2-(pyrrolidin-1-yl)ethyl)acetamide] are 72 to 74 °C and no less than 7.30.
The corresponding values for `CN(C(=O)Cc1ccc2oc(=O)[nH]c2c1)[C@H](CN1CCCC1)c1cccc(-c2nn[nH]n2)c1` [Example 93, (S)-N-(1-(3-(2H-tetrazol-5-yl)phenyl)-2-(pyrrolidin-1-yl)ethyl)-N-methyl-2-(2-oxo-2,3-dihydrobenzo[d]oxazol-5-yl)acetamide] are 240 to 242 °C and no less than 7.30.
For the compound `CN(C(=O)Cc1ccc2oc(=O)n(Cc3cccc(C(N)=O)c3)c2c1)[C@H](CN1CC[C@H](O)C1)c1ccccc1` [Example 88, 3-((5-(2-(((S)-2-((S)-3-hydroxypyrrolidin-1-yl)-1-phenylethyl)(methyl)amino)-2-oxoethyl)-2-oxobenzo[d]oxazol-3(2H)-yl)methyl)benzamide], the melting point was 181 to 183 °C. The compound also gave a pEC50 at human KOR receptor of no less than 7.30.
